In patent US11578067B2, “Compound, and method for producing regulatory T cells” (Kyoto University, priority 2017, dated 2023):

Experiments:
naive Th cells = test: Induction from naive T cells to Tregs by CDK8/19 inhibitory drugs (CD25+ Foxp3+ cells, EC150); assay type: cell-based, mouse; conditions: concentration giving 150% CD25+ Foxp3+ cells versus 0.1% DMSO, 44 hours, geometric average of three trials
Method: The naive T cells were generated by the following method. […] Naive Th cells were prepared from the cell suspension using Naive CD4^+ T cell Isolation Kit, mouse (manufactured by Miltenyi Biotec). […] Further, Anti-Biotin MicroBeads and CD44 MicroBeads were added, followed by incubation at 4° C. for 10 minutes and then a centrifugation operation (300xg, 10 minutes). After the removal of the supernatant, the cells were resuspended in MEM and applied to an LS column (manufactured by Miltenyi Biotech). The cells contained in the flow-through liquid were used in the subsequent experiments. The prepared naive Th cells (2×10^5 cells) were stimulated with an anti-CD3/CD28 antibody (Gibco Dynabeads Mouse T-Activator CD3/CD28; manufactured by Thermo Fisher Scientific) in the presence of various CDK8/19 inhibitory drugs (usage amount: from 1 nM to 10,000 nM [[μM]]) at 5% CO2 at 37° C. […] The stained cells were measured using Canto II (manufactured by BD) by a flow cytometry method, and a proportion of CD25^+ Foxp3^+ cells in CD4^+ viable cells was analyzed using FlowJo (manufactured by FlowJo).

Th1-type asthma model = test: Th1-type asthma model, airway resistance after methacholine; assay type: in vivo, mouse; conditions: 0.5 mg/kg oral once a day, 17 days, 25 mg/mL methacholine
[1] = system: mouse actively-sensitized antibody-induced nasal allergy model; test: Actively-sensitized antibody-induced nasal allergy model, nasal rubbing; assay type: in vivo
Method: The mouse actively-sensitized antibody-induced nasal allergy model was generated by the following method. Seven-week-old BALB/c mice (manufactured by SLC, male) were initially sensitized by intraperitoneal administration of 200 μL of a mixed liquid of OVA (manufactured by Wako Pure Chemical Industries, Ltd.) (0.5 mg/mL) (100 μg/mouse), 5 mg/mL of aluminum hydroxide (ALUM; manufactured by Wako Pure Chemical Industries, Ltd.), and 1.5 μg/mL of pertussis toxin (manufactured by Wako Pure Chemical Industries, Ltd.). Next, 5 days after the initial sensitization, as additional sensitization, OVA (50 μg/mouse) was administered into the dorsal skin of the mice to perform systemic sensitization. After that, OVA (100 μg/mouse) was administered to the mice as nasal drops at a frequency of once a day as local sensitization for 8 days from day 18 after the initial sensitization to elicit a nasal allergy symptom due to active sensitization.
A 0.5% (w/v) methylcellulose solution serving as a vehicle was used for a vehicle control group, and dexamethasone (manufactured by Tokyo Chemical Industry Co., Ltd.) was used for a positive control.

OVA-induced asthma model = test: OVA-induced asthma model, airway resistance after methacholine; assay type: in vivo, mouse; conditions: 0.5 mg/kg oral once a day, 34 days, 25 mg/mL methacholine
CDK8 = CDK8 (Homo sapiens, UniProt P49336); test: CDK8 kinase activity measurement (QSS Assist CDK8/CycC_ELISA kit)
CDK8, sequence (P49336 whole entry): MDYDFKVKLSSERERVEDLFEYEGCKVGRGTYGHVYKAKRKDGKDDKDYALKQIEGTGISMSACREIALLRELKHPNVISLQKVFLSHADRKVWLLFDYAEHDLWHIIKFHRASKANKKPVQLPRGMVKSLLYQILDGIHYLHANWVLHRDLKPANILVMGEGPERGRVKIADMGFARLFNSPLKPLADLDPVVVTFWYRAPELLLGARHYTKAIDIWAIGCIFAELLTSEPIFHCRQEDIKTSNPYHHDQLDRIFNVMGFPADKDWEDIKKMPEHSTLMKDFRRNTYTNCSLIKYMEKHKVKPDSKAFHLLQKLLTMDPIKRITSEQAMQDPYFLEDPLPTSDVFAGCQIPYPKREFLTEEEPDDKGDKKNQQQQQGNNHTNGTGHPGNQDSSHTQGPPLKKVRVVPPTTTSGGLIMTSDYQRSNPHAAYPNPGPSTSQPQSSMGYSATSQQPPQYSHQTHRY
CDK8, sequence (P24863 whole entry partner): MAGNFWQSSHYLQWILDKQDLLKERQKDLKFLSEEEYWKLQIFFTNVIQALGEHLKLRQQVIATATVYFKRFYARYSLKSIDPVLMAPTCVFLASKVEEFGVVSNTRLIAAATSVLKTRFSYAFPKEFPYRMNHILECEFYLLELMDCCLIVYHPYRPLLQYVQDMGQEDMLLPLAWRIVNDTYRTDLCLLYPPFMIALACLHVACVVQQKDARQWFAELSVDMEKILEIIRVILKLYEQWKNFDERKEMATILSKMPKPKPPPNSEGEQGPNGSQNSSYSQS

CDK19 = CDK19 (Homo sapiens, UniProt Q9BWU1); test: CDK19 kinase activity measurement (QSS Assist CDC2L6/CycC_ELISA kit)
CDK19, sequence (Q9BWU1 whole entry): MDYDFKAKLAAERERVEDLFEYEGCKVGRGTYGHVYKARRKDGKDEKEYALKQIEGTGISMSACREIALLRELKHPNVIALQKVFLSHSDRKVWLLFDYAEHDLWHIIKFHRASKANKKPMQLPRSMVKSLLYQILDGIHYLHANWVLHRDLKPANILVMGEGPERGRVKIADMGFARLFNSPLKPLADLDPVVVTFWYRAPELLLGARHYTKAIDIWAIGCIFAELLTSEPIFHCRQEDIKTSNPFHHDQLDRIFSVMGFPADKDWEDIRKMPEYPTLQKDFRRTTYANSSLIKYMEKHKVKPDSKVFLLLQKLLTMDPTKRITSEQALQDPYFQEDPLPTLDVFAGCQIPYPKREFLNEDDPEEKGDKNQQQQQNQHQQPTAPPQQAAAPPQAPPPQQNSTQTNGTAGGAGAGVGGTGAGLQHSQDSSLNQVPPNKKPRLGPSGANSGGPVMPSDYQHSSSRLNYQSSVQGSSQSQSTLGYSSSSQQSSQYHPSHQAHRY
CDK19, sequence (P24863 whole entry partner): as the sequence (P24863 whole entry partner) above

[2] = system: CD4+ CD25− Foxp3− CD62L+ CD44− naive T cells; test: In vitro Foxp3 induction in naive T cells (Foxp3-GFP, flow cytometry); assay type: cell-based, mouse; conditions: hTGF-β1 2 ng/mL alone, anti-CD3/CD28, 72 hours
Method: The eFox mice were generated in accordance with a method described in Science. […] The prepared total lymphocytic cells were stained with an anti-CD4 antibody (RM-4.5; manufactured by BD), an anti-CD62L antibody (MEL-14; manufactured by BD), and an anti-CD44 antibody (IM7; manufactured by BD), and CD4^+ CD25^− Foxp3^− CD62L^+ CD44^− naive T cells were prepared using FACSAria™ II (manufactured by BD).
The cells after the treatment were stained with an anti-CD4 antibody (manufactured by BD), and a proportion of Foxp3-GFP-positive cells was analyzed by a flow cytometry method.

[3] = system: human effector memory CD4+ T cells (CD4+ CD25− CD45RA− Foxp3−); test: Foxp3 induction in human effector memory CD4+ T cells; assay type: cell-based; conditions: TGF-β 2 ng/mL alone, hIL-2, 72 hours
Method: Human peripheral blood mononuclear cells (manufactured by Wako Pure Chemical Industries, Ltd.) were stained using an anti-CD4 antibody (RPA-T4; manufactured by BD), an anti-CD25 antibody (M-A251; manufactured by BD), and an anti-CD45RA antibody (HI100; manufactured by BD), and human effector memory CD4^+ T cells (CD4^+ CD25^− CD45RA^− Foxp3^−) were prepared using FACSAria™ II (manufactured by BD).
(§1) The cells after the treatment were stained with an anti-CD4 antibody (manufactured by BD) and an anti-Foxp3 antibody (manufactured by eBioscience), and a proportion of Foxp3-positive cells was analyzed by a flow cytometry method.

[4] = system: human naive CD4+ T cells (CD4+ CD25− CD45RA+ Foxp3−); test: Foxp3 induction in human naive CD4+ T cells with anti-TGF-β antibody or TGF-β; assay type: cell-based; conditions: hTGF-β1 2 ng/mL alone, hIL-2, 72 hours
Method: Human naive CD4^+ T cells (CD4^+ CD25^− CD45RA^+ Foxp3^−) were prepared from human peripheral blood mononuclear cells (manufactured by Wako Pure Chemical Industries, Ltd.) in the same manner as in Example 17. As shown in the following items (i) to (iv), the prepared naive T cells (2×10^5 cells) were stimulated using 5 μL of an anti-CD3/CD28 antibody (Gibco Dynabeads Human T-Activator CD3/CD28; manufactured by Thermo Fisher Scientific) in the presence/absence of 2 ng/mL of hTGF-β1 (manufactured by R&D) or 10 μg/mL of an anti-TGF-β antibody (manufactured by R&D), hIL-2 (manufactured by Shionogi & Co., Ltd.) (50 U/ml), and 100 nM of Compound 1 Salt, and treated under a 5% CO2 atmosphere at 37° C. for 72 hours.
as §1

With NC(=O)[C@H](Nc1cncc(-c2ccc(O)c(Cl)c2)c1)c1ccccc1 [(R)-2-[5-(3-Chloro-4-hydroxyphenyl)-pyridin-3-ylamino]-2-phenylacetamide] the EC150 (naive Th cells) was 2.8 nM.
COc1ccc(N2CCC(n3c(-c4nccnc4N)nc4c(C)nccc43)CC2)cc1 [Compound 2, 3-{1-[1-(4-methoxyphenyl)piperidin-4-yl]-4-methyl-1H-imidazo[4,5-c]pyridin-2-yl}pyrazin-2-amine] was tested, and the “airway reactivity (sRaw)” value (Th1-type asthma model) was “suppressed an increase in airway reactivity”, the “number of times of nasal rubbing” value ([1]; 1.0 mg/kg oral daily) was “significantly suppressed” and the “number of times of nasal rubbing” value ([1]; 3.0 mg/kg oral daily) was “significantly suppressed”. The “airway reactivity (sRaw)” value (OVA-induced asthma model) was “suppressed an increase in airway reactivity”, the IC50 (CDK8) was 0.7 nM and the IC50 (CDK19) was 1.9 nM. For the same compound, the EC150 (naive Th cells) was 10.2 nM.
N#Cc1ccc2ncnc(NCCc3ccccc3)c2c1 [Senexin A] was tested, and the EC150 (naive Th cells) was 192.2 nM.
In the case of “TGF-β: hTGF-β1 (manufactured by R&D), used as control and in combination”, the “proportion of Foxp3-GFP-positive cells” value [2] is reported as 44.3%, the “proportion of Foxp3-positive cells” value [3] is reported as 28.5% and the “proportion of Foxp3-positive cells” value [4] is reported as 26.9%.
